Patent US20250388574A1, “HETEROCYCLIC COMPOUNDS AS TRIGGERING RECEPTOR EXPRESSED ON MYELOID CELLS 2 AGONISTS AND METHODS OF USE” (AMGEN INC., priority 2020, published 2025)

Target: hTREM2 (Homo sapiens, UniProt Q9NZC2)
Test: Phospho-Syk AlphaScreen/AlphaLISA assay in TREM2 and DAP12 overexpressing HEK293 cells (Example A1)
Format: cell-based
Parameters: expressed in transfected cells
Details: HEK293 cells; for EC50: read-out: hTREM2 EC50
Summary of the method: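 Single-cell-cloned HEK293 stably overexpressing TREM2 and DAP12, plated 20,000 cells/well for 20 h, then exposed to compounds (1% DMSO) 45 min at room temperature. Lysates probed for phospho-Syk by AlphaLISA sandwich (anti-pSyk, biotinylated anti-Syk); signal normalized to percent of control (100 nM anti-TREM2 antibody vs isotype) and fitted by 4-parameter logistic.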

Chain of hTREM2 (Q9NZC2 19-230): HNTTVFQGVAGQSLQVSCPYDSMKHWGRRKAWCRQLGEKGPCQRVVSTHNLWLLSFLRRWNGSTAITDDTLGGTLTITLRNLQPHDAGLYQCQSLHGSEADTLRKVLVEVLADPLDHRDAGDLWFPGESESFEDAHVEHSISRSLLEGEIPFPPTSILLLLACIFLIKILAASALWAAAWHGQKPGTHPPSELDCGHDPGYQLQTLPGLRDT
Chain of hTREM2 (O43914 22-113 partner): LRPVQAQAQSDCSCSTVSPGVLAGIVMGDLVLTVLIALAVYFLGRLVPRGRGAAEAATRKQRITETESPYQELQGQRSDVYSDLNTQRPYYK

Emax	EC50	SMILES
++++ (Emax>300)	0.5 to 3 µM	CCCn1c(C)nc2cc(N3CCO[C@@H](C(F)(F)F)C3)nc(-c3ccc(Cl)cc3F)c2c1=O [Example 179, (R)-5-(4-chloro-2-fluorophenyl)-2-methyl-3-propyl-7-(2-(trifluoromethyl)morpholino)pyrido[4,3-d]pyrimidin-4(3H)-one]
++++ (Emax>300)	0.5 to 3 µM	CCCn1c(C)nc2cc(N3CCO[C@H](C(F)(F)F)C3)nc(-c3ccc(Cl)cc3F)c2c1=O [Example 180, (S)-5-(4-chloro-2-fluorophenyl)-2-methyl-3-propyl-7-(2-(trifluoromethyl)morpholino)pyrido[4,3-d]pyrimidin-4(3H)-one]
++++ (Emax>300)	3 to 100 µM	CCCn1c(C)nc2cc(N3Cc4cnn(C)c4C3)nc(-c3ccc(Cl)cc3F)c2c1=O [Example 181, 5-(4-chloro-2-fluorophenyl)-2-methyl-7-(1-methyl-4,6-dihydropyrrolo[3,4-c]pyrazol-5(1H)-yl)-3-propylpyrido[4,3-d]pyrimidin-4(3H)-one]
+++ (Emax>200 and ≤300)	3 to 100 µM	CCCn1c(C)nc2cc(N3CCn4ccnc4C3)nc(-c3ccc(Cl)cc3F)c2c1=O [Example 182, 5-(4-chloro-2-fluorophenyl)-7-(5,6-dihydroimidazo[1,2-a]pyrazin-7(8H)-yl)-2-methyl-3-propylpyrido[4,3-d]pyrimidin-4(3H)-one]
+++ (Emax>200 and ≤300)	0.5 to 3 µM	CCCn1c(C)nc2cc(N3CCO[C@H](C(F)F)C3)nc(-c3ccc(Cl)cc3F)c2c1=O [Example 183, (S)-5-(4-chloro-2-fluorophenyl)-7-(2-(difluoromethyl)morpholino)-2-methyl-3-propylpyrido[4,3-d]pyrimidin-4(3H)-one]
++++ (Emax>300)	0.05 to 0.5 µM	CCCn1c(C)nc2cc(N3CCO[C@H](c4ccnn4C)C3)nc(-c3ccc(Cl)cc3F)c2c1=O [Example 184, (S)-5-(4-chloro-2-fluorophenyl)-2-methyl-7-(2-(1-methyl-1H-pyrazol-5-yl)morpholino)-3-propylpyrido[4,3-d]pyrimidin-4(3H)-one]
+++ (Emax>200 and ≤300)	0.5 to 3 µM	CCCn1c(C)nc2cc(N3CCOC(CF)C3)nc(-c3ccc(Cl)cc3F)c2c1=O (centres unmarked) [Example 185, 5-(4-chloro-2-fluorophenyl)-7-(2-(fluoromethyl)morpholino)-2-methyl-3-propylpyrido[4,3-d]pyrimidin-4(3H)-one]
++++ (Emax>300)	0.5 to 3 µM	CCCn1c(C)nc2cc(N3CCO[C@H](c4ccccc4)C3)nc(-c3ccc(Cl)cc3F)c2c1=O [Example 186, (R)-5-(4-chloro-2-fluorophenyl)-2-methyl-7-(2-phenylmorpholino)-3-propylpyrido[4,3-d]pyrimidin-4(3H)-one]
++++ (Emax>300)	0.5 to 3 µM	CCCn1c(C)nc2cc(N3CCO[C@H](CC)C3)nc(-c3ccc(Cl)cc3F)c2c1=O [Example 187, (R)-5-(4-chloro-2-fluorophenyl)-7-(2-ethylmorpholino)-2-methyl-3-propylpyrido[4,3-d]pyrimidin-4(3H)-one]
++++ (Emax>300)	0.5 to 3 µM	Cc1nc2cc(N3CCO[C@@H](C4CC4)C3)nc(-c3ccc(Cl)cc3F)c2c(=O)n1C [Example 188, (S)-5-(4-chloro-2-fluorophenyl)-7-(2-cyclopropylmorpholino)-2,3-dimethylpyrido[4,3-d]pyrimidin-4(3H)-one]
++++ (Emax>300)	0.05 to 0.5 µM	Cc1nc2cc(N3CCO[C@H](c4cnn(C)c4)C3)nc(-c3ccc(Cl)cc3F)c2c(=O)n1C [Example 189, (R)-5-(4-chloro-2-fluorophenyl)-2,3-dimethyl-7-(2-(1-methyl-1H-pyrazol-4-yl)morpholino)pyrido[4,3-d]pyrimidin-4(3H)-one]
+++ (Emax>200 and ≤300)	0.5 to 3 µM	CCCn1c(C)nc2cc(N3CCO[C@H](c4ccccc4)C3)nc(-c3ccc(Cl)cc3F)c2c1=O [Example 190, (R)-5-(4-chloro-2-fluorophenyl)-2-methyl-7-(2-phenylmorpholino)-3-propylpyrido[4,3-d]pyrimidin-4(3H)-one]
++++ (Emax>300)	0.5 to 3 µM	CCCn1c(C)nc2cc(N3CCO[C@H](C(F)F)C3)nc(-c3ccc(Cl)cc3F)c2c1=O [Example 191, (S)-5-(4-chloro-2-fluorophenyl)-7-(2-(difluoromethyl)morpholino)-2-methyl-3-propylpyrido[4,3-d]pyrimidin-4(3H)-one]
++++ (Emax>300)	0.5 to 3 µM	CCCn1c(C)nc2cc(N3CCO[C@@H](CF)C3)nc(-c3ccc(Cl)cc3F)c2c1=O [Example 192, (R)-5-(4-chloro-2-fluorophenyl)-7-(2-(fluoromethyl)morpholino)-2-methyl-3-propylpyrido[4,3-d]pyrimidin-4(3H)-one]
+++ (Emax>200 and ≤300)	0.5 to 3 µM	CCCn1c(C)nc2cc(N3CCO[C@H](CF)C3)nc(-c3ccc(Cl)cc3F)c2c1=O [Example 193, (S)-5-(4-chloro-2-fluorophenyl)-7-(2-(fluoromethyl)morpholino)-2-methyl-3-propylpyrido[4,3-d]pyrimidin-4(3H)-one]
+++ (Emax>200 and ≤300)	3 to 100 µM	Cc1nc2cc(N3CCO[C@H](C4CC4)C3)nc(-c3ccc(Cl)cc3F)c2c(=O)n1C [Example 194, (R)-5-(4-chloro-2-fluorophenyl)-7-(2-cyclopropylmorpholino)-2,3-dimethylpyrido[4,3-d]pyrimidin-4(3H)-one]
+ (Emax>45 and ≤100)	3 to 100 µM	CCCn1c(C)nc2cc(N3CCO[C@H](c4cnn(C)c4)C3)nc(-c3ncc(Cl)cc3C)c2c1=O [Example 195, (R)-5-(5-chloro-3-methylpyridin-2-yl)-2-methyl-7-(2-(1-methyl-1H-pyrazol-4-yl)morpholino)-3-propylpyrido[4,3-d]pyrimidin-4(3H)-one]
++++ (Emax>300)	0.5 to 3 µM	Cc1nc2cc(N3CCO[C@H](c4cnn(C)c4)C3)nc(-c3ncc(Cl)cc3F)c2c(=O)n1C [Example 196, (R)-5-(5-chloro-3-fluoropyridin-2-yl)-2,3-dimethyl-7-(2-(1-methyl-1H-pyrazol-4-yl)morpholino)pyrido[4,3-d]pyrimidin-4(3H)-one]
++++ (Emax>300)	0.05 to 0.5 µM	CCn1cc([C@@H]2CN(c3cc4nc(C)n(C)c(=O)c4c(-c4ccc(Cl)cc4F)n3)CCO2)cn1 [Example 197, (R)-5-(4-chloro-2-fluorophenyl)-7-(2-(1-ethyl-1H-pyrazol-4-yl)morpholino)-2,3-dimethylpyrido[4,3-d]pyrimidin-4(3H)-one]
++++ (Emax>300)	0.5 to 3 µM	Cc1nc2cc(N3CCO[C@H](c4nccs4)C3)nc(-c3ccc(Cl)cc3F)c2c(=O)n1C [Example 198, (S)-5-(4-chloro-2-fluorophenyl)-2,3-dimethyl-7-(2-(thiazol-2-yl)morpholino)pyrido[4,3-d]pyrimidin-4(3H)-one]
++++ (Emax>300)	0.05 to 0.5 µM	Cc1nc([C@@H]2CN(c3cc4nc(C)n(C)c(=O)c4c(-c4ccc(Cl)cc4F)n3)CCO2)no1 [Example 200, (S)-5-(4-chloro-2-fluorophenyl)-2,3-dimethyl-7-(2-(5-methyl-1,2,4-oxadiazol-3-yl)morpholino)pyrido[4,3-d]pyrimidin-4(3H)-one]
++++ (Emax>300)	0.05 to 0.5 µM	Cc1nc2cc(N3CCO[C@H](c4noc(C5CC5)n4)C3)nc(-c3ccc(Cl)cc3F)c2c(=O)n1C [Example 201, (S)-5-(4-chloro-2-fluorophenyl)-7-(2-(5-cyclopropyl-1,2,4-oxadiazol-3-yl)morpholino)-2,3-dimethylpyrido[4,3-d]pyrimidin-4(3H)-one]
+++ (Emax>200 and ≤300)	3 to 100 µM	Cc1nc2cc(N3CC[C@H](c4cnn(C)c4)C3)nc(-c3ccc(Cl)cc3F)c2c(=O)n1C [Example 202, (R)-5-(4-chloro-2-fluorophenyl)-2,3-dimethyl-7-(3-(1-methyl-1H-pyrazol-4-yl)pyrrolidin-1-yl)pyrido[4,3-d]pyrimidin-4(3H)-one]
+ (Emax>45 and ≤100)	3 to 100 µM	Cc1nc2cc(N3CC[C@H](n4cccn4)C3)nc(-c3ccc(Cl)cc3F)c2c(=O)n1C [Example 203, (S)-7-(3-(1H-pyrazol-1-yl)pyrrolidin-1-yl)-5-(4-chloro-2-fluorophenyl)-2,3-dimethylpyrido[4,3-d]pyrimidin-4(3H)-one]
+ (Emax>45 and ≤100)	3 to 100 µM	Cc1cnn([C@H]2CCN(c3cc4nc(C)n(C)c(=O)c4c(-c4ccc(Cl)cc4F)n3)C2)c1 [Example 204, (S)-5-(4-chloro-2-fluorophenyl)-2,3-dimethyl-7-(3-(4-methyl-1H-pyrazol-1-yl)pyrrolidin-1-yl)pyrido[4,3-d]pyrimidin-4(3H)-one]
+++ (Emax>200 and ≤300)	3 to 100 µM	Cc1nc2cc(N3CC[C@H](c4ccccn4)C3)nc(-c3ccc(Cl)cc3F)c2c(=O)n1C [Example 205, (S)-5-(4-chloro-2-fluorophenyl)-2,3-dimethyl-7-(3-(pyridin-2-yl)pyrrolidin-1-yl)pyrido[4,3-d]pyrimidin-4(3H)-one]
++ (Emax>100 and ≤200)	3 to 100 µM	Cc1nc2cc(N3CC[C@H](c4ccccc4)C3)nc(-c3ccc(Cl)cc3F)c2c(=O)n1C [Example 206, (R)-5-(4-chloro-2-fluorophenyl)-2,3-dimethyl-7-(3-phenylpyrrolidin-1-yl)pyrido[4,3-d]pyrimidin-4(3H)-one]
++ (Emax>100 and ≤200)	3 to 100 µM	Cc1nc2cc(N3CC[C@H](C4CC4)C3)nc(-c3ccc(Cl)cc3F)c2c(=O)n1C [Example 207, (R)-5-(4-chloro-2-fluorophenyl)-7-(3-cyclopropylpyrrolidin-1-yl)-2,3-dimethylpyrido[4,3-d]pyrimidin-4(3H)-one]
